Molecules are shown by their SMILES.

The record followed here is article PMC3563301 (Journal of medicinal chemistry, 2012).

Data set [1] deals with U87MG cells. Kind of data set: Loss of mitochondrial potential. The data set is classed as cell-based, human. Conditions: 30 μM, 24 h, JC-1.
The test system of data set [2] is HeLa, HT29, A549, HCT 116, and HCT 15 cell lines. Nature of the data set: Average growth inhibition over five cell lines. The data set is classed as cell-based. The settings on record: Homo sapiens, read-out: average IC50 for the five cell lines, HeLa, HT-29, A549, HCT 116, HCT 15; for comparative purposes.
In another data set the target is CYP2D6 (Homo sapiens, UniProt P10635). Nature of the data set: CYP450 inhibition, CYP2D6. The class given is biochemical. Conditions: recombinant CYP2D6 (Supersomes, Gentest), pH 7.4.
CYP2D6, sequence (P10635 whole entry): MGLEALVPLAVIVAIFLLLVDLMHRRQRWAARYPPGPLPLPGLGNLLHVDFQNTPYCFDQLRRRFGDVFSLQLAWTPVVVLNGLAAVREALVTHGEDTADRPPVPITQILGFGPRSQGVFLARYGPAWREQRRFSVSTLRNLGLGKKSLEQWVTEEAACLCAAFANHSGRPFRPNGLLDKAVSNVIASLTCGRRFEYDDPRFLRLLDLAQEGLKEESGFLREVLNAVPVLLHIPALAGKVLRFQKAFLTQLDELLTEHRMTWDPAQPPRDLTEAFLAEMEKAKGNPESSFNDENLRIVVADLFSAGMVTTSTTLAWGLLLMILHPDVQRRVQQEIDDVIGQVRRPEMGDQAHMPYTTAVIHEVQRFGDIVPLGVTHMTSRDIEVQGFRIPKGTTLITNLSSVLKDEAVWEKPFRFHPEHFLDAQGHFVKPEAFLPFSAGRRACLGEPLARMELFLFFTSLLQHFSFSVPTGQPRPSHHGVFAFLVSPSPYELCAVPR
For another data set, the system named is OVCAR-8. Nature of the data set: Growth inhibition of OVCAR-8 cells. The data set is classed as cell-based. Conditions: Homo sapiens, OVCAR-8, 96 h, read-out: IC50 ± SD OVCAR-8.
The next data set is described as follows: Caco-2 cell permeability. The data set is classed as in vitro ADME. The settings on record: human.
In data set [3] the test system is U87MG cells. Kind of data set: ROS generation. The class given is cell-based, human. The settings on record: 400 mM H2O2, 1 h treatment.

Consider `N#CC(C#N)=NNc1cccc(Cl)c1` [CCCP, carbonyl cyanide m-chlorophenylhydrazone], for which the mitochondrial potential dissipation result with U87MG cells [1] was “about 50%”.

As usually defined, the IC50 is the midpoint of a concentration-inhibition curve. Regarding `COc1ccc(/C=C\c2cc(OC)c(OC)c(OC)c2)cc1O` [Compound 2, combretastatin A-4], the IC50 in data set [2] is over 2030 nM.

As usually defined, the inhibition is the relative decrease from the control value, in per cent. Turning to `COc1cc(Sc2c(-n3ccnc3)[nH]c3ccccc23)cc(OC)c1OC` [Compound 18, 2-(1H-Imidazol-1-yl)-3-((3,4,5-trimethoxyphenyl)thio)-1H-indole], the inhibition at 30 min, 1 µM at CYP2D6 is under 50%.

For the compound `COc1cc(Sc2c(-n3cncn3)[nH]c3ccccc23)cc(OC)c1OC` [Compound 20, 2-(1H-1,2,4-Triazol-1-yl)-3-((3,4,5-trimethoxyphenyl)thio)-1H-indole], at CYP2D6, the inhibition at 30 min, 1 µM was under 50%.

For the compound `COc1cc(Sc2c(-c3cccnc3)[nH]c3ccccc23)cc(OC)c1OC` [Compound 55, 2-(Pyridin-3-yl)-3-((3,4,5-trimethoxyphenyl)thio)-1H-indole], the inhibition at 30 min, 1 µM on CYP2D6 is under 50%.

With `COc1cc(Sc2c(-c3ccncc3)[nH]c3ccccc23)cc(OC)c1OC` [Compound 57, 2-(Pyridin-4-yl)-3-((3,4,5-trimethoxyphenyl)thio)-1H-indole], at CYP2D6, the inhibition at 30 min, 1 µM was under 50%.

As to `CC(=O)O[C@H]1C(=O)[C@@]2(C)[C@H]([C@H](OC(=O)c3ccccc3)[C@]3(O)C[C@H](OC(=O)[C@H](O)[C@@H](NC(=O)c4ccccc4)c4ccccc4)C(C)=C1C3(C)C)[C@]1(OC(C)=O)CO[C@@H]1C[C@@H]2O` [PTX, paclitaxel], the IC50 in data set [2] came to 23 nM.

In the case of `CC[C@]1(O)C[C@@H]2CN(CCc3c([nH]c4ccccc34)[C@@](C(=O)OC)(c3cc4c(cc3OC)N(C)[C@H]3[C@@](O)(C(=O)OC)[C@H](OC(C)=O)[C@]5(CC)C=CCN6CC[C@]43[C@@H]65)C2)C1` [VBL, vinblastine], the IC50 in data set [2] was determined as 17 nM; in the data set on OVCAR-8, 15 ± 7 nM.

Broadly, the Papp A→B is how fast a substance crosses the layer from the apical side. Read a low Papp A→B as poor permeation. As usually defined, the Papp B→A is how fast a substance crosses the layer from the basolateral side. In “Caco-2 cell permeability”, `CN/C(=N/CCSCc1nc[nH]c1C)NC#N` [cimetidine] returned a Papp A→B at 2 h, 10 μM of 0.11 ×10⁻⁶ cm/s and a Papp B→A at 2 h, 10 μM of 2.13 ×10⁻⁶ cm/s.

Consider `OO` [hydrogen peroxide], for which the “ROS, fluorescence intensity with respect to control” value with U87MG cells [3] is given as 208%.
